Reference: ChEMBL document CHEMBL3407450, “Design of new hybrid template by linking quinoline, triazole and dihydroquinoline pharmacophoric groups: A greener approach to novel polyazaheterocycles as cytotoxic agents” (Bioorg Med Chem Lett, 2015)

How the values were obtained:
MCF7 = test: Cytotoxicity against human MCF7 cells assessed as cell viability after 48 hrs by MTT assay; assay type: functional, cell-based; details: MCF7, 48 h
HepG2 = test: Cytotoxicity against human HepG2 cells assessed as cell viability after 48 hrs by MTT assay; assay type: functional, cell-based; details: HepG2, 48 h
DU-145 = test: Cytotoxicity against human DU145 cells assessed as cell viability after 48 hrs by MTT assay; assay type: functional, cell-based; details: DU-145, 48 h
A549 = test: Cytotoxicity against human A549 cells assessed as cell viability after 48 hrs by MTT assay; assay type: functional, cell-based; details: A549, 48 h
[1] = biological target: 3',5'-cyclic-AMP phosphodiesterase 4D (Homo sapiens) (UniProt Q08499); test: Inhibition of PDE4D (unknown origin) transfected into Sf9 cells at 30 uM by PDElight HTS cAMP phosphodiesterase assay
Chain of 3',5'-cyclic-AMP phosphodiesterase 4D (Homo sapiens) (Q08499 whole entry): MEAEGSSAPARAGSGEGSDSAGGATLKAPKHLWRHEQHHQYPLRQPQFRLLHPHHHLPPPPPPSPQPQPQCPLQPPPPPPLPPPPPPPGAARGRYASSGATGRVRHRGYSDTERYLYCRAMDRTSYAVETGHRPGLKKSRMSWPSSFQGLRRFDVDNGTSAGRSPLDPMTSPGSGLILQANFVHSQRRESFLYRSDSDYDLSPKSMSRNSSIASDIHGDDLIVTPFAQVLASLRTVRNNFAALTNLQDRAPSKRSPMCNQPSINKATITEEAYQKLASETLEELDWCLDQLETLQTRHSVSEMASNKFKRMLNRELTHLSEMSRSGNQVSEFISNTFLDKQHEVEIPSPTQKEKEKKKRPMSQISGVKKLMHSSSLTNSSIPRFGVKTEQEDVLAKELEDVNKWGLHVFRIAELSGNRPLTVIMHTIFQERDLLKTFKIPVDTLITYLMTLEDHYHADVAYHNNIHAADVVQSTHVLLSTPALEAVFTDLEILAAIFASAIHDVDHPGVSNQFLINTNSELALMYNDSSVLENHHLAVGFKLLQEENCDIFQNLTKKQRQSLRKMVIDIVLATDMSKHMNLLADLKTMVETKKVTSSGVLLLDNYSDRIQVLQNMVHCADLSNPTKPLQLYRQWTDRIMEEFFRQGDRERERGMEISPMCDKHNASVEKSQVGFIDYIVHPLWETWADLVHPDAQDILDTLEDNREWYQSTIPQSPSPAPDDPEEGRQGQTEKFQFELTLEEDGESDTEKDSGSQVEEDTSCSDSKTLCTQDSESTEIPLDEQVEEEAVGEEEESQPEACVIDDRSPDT

[2] = biological target: 3',5'-cyclic-AMP phosphodiesterase 4B (Homo sapiens) (UniProt Q07343); test: Inhibition of PDE4B (unknown origin) transfected into Sf9 cells at 30 uM by PDElight HTS cAMP phosphodiesterase assay
Chain of 3',5'-cyclic-AMP phosphodiesterase 4B (Homo sapiens) (Q07343 whole entry): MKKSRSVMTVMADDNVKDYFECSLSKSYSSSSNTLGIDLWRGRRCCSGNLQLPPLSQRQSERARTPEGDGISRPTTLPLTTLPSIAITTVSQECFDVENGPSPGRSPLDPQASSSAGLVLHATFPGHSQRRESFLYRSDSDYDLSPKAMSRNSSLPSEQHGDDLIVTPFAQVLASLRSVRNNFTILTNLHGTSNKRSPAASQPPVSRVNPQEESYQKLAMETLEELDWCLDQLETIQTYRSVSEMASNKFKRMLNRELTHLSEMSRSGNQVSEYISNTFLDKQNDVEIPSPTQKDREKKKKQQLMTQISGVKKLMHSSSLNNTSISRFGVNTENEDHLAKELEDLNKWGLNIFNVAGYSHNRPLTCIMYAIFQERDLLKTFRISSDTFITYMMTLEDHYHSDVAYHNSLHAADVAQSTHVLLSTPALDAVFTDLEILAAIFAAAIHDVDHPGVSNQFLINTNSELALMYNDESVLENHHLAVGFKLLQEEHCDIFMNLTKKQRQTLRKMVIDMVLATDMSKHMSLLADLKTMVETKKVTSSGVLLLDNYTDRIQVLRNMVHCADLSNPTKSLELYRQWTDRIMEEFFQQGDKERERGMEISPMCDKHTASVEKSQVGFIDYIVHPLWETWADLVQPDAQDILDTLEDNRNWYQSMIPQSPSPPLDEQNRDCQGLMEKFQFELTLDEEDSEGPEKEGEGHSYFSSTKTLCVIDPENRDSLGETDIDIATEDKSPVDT

SMILES | IC50 (MCF7) | IC50 (HepG2) | IC50 (DU-145) | IC50 (A549) | inhibition [1] | inhibition [2]
COc1ccc2c(c1)C(C)=CC(C)(C)N2Cc1cn(Cc2cc3cc(OC)ccc3nc2Cl)nn1 | 26.4 µM | 27.2 µM | 28.6 µM | 30.9 µM |  | 
CC1=CC(C)(C)N(Cc2cn(Cc3cc4ccccc4nc3Cl)nn2)c2ccccc21 | 16.2 µM | 13.1 µM | 19.3 µM | 17.5 µM |  | 
COc1cccc2c1C(=O)c1c(O)c3c(c(O)c1C2=O)C[C@@](O)(C(=O)CO)C[C@@H]3O[C@H]1C[C@H](N)[C@H](O)[C@H](C)O1 [DOXORUBICIN] | 0.8 µM | 3.5 µM | 0.5 µM | 9.7 µM |  | 
COc1ccc2nc(Cl)c(Cn3cc(CN4c5ccc(C)cc5C(C)=CC4(C)C)nn3)cc2c1 | 14.3 µM | 21.6 µM | 19.8 µM | 15.5 µM | 52% | 88%
COc1ccc2nc(Cl)c(Cn3cc(CN4c5ccccc5C(C)=CC4(C)C)nn3)cc2c1 | 38.7 µM | 41.2 µM | 34 µM | 33.4 µM |  | 
CC1=CC(C)(C)N(Cc2cn(Cc3cc4ccc(C)cc4nc3Cl)nn2)c2ccccc21 | 10.8 µM | 26.2 µM | 27 µM | 11.1 µM |  | 
CC1=CC(C)(C)N(Cc2cn(Cc3cc4cc(C)ccc4nc3Cl)nn2)c2ccccc21 | 30.6 µM | 23 µM | 31.3 µM | 29.4 µM |  | 
